Source: patent publication US5229398A, “Aminomethylpiperidine compounds” (Adir et Compagnie, priority 1990, dated 1993)
pKi: −log10 of the molar value. Counter-ions that a name gives are not always drawn. Like-named read-outs stand apart in the source and are kept apart here.

Assays:
5-HT1A receptors [1] = target: T1, 5-HT1A receptors (Rattus norvegicus, UniProt P19327); assay: In vivo test of "tail-flicks" (antagonism of 8-OH-DPAT-induced spontaneous tail movements); parameters: from tissue; host or cells: whole rat in vivo; details: subcutaneous injection; for ED50: sc, against subcutaneous 8-OH-DPAT, read-out: ED50, the amount which reduces the action of 8-OH-DPAT by 50%
T1 sequence (P19327 1-422): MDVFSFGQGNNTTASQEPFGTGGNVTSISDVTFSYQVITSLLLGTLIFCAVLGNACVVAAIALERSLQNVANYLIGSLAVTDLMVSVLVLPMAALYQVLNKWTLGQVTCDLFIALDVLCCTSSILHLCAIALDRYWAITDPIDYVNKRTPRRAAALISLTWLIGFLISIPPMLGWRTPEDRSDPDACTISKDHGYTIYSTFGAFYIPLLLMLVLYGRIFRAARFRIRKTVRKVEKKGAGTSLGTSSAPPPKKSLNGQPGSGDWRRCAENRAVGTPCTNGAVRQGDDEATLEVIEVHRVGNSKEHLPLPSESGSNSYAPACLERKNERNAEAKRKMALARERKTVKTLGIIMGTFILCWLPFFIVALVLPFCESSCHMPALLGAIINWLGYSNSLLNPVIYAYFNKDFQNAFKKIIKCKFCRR
Excerpt: The potential of the compounds of the invention to act in vivo on the 5-HT1A receptors was brought out following a method perfected by Millan et al. (Neurosci. Lett., 1989, 107, 227-232). […] This model then was used to evaluate the potential of the compounds of the invention administered by subcutaneous injection, to interact with the 5-HT1A receptors in the rat. The ED50, that is the amount which reduces the action of 8-OH-DPAT by 50%, was thus determined.

5-HT1A receptors [2] = target: T1, 5-HT1A receptors; assay: Affinity for 5-HT1A receptors in vitro ([3H]-8-OH-DPAT binding, rat hippocampus membranes); parameters: from tissue; host or cells: hippocampus membranes of male Wistar rats; species or system male Wistar rats
Method: The tests were carried out on tissue from the hippocampus of decapitated male Wistar rats. The rats were sacrificed 48 hours before the experiment and the isolated tissues were preserved at -86° C.
In order to prepare the membranes, the tissues were homogenized at 0° C. in 20 volumes of 50 mM Tris HCl buffer solution (pH 7.7, adjusted with 5N HCl at 25° C.), with a Polytron homogenizer for 6 seconds. The whole was then centrifuged (35,000 g for 20 minutes at 4° C.). Homogenization followed by centrifugation was repeated a second time under the same conditions. The pellet thus obtained was suspended for a final time in 20 volumes of the above buffer, incubated for 15 minutes at 37° C., then again centrifuged. […]
The compounds to be tested were put into solution in the incubation buffer. Test solutions were prepared by placing in 12×75 mm glass tubes, 10 μl of the solution of the compounds to be tested, 100 μl of a solution containing […] of [^3 H]-8-OH-DPAT (specific radioactivity 205 Ci/mmol). Non-specific binding was determined with the aid of a solution of 5-hydroxytryptamine (10 μM), and represented 5 to 10% of the final binding. […] Radioactivity was then determined with the aid of external standards.
The pKi values were determined by the CheungPrusoff equation: [formula]

5-HT1A receptors [3] = target: T1, 5-HT1A receptors; parameters: from tissue; host or cells: whole rat in vivo; details: subcutaneous injection; cited from earlier work
5-HT1A receptors [4] = target: T1, 5-HT1A receptors; parameters: The tests were carried out on tissue from the hippocampus of decapitated male Wistar rats; from tissue; host or cells: hippocampus membranes of male Wistar rats; details: reference ligand 8-OH-DPAT; cited from earlier work

Row | SMILES | ED50 (5-HT1A receptors [1]) [mg/kg] | properties towards the 5-HT1A receptors (in words) (5-HT1A receptors [1]) | Ki (5-HT1A receptors [2]; rat hippocampus, [3H]-8-OH-DPAT, 30 minutes at 37° C., pKi by CheungPrusoff equation, read-out: pKi (converted)) [nM] | induction of spontaneous movements of the tail (in words) (5-HT1A receptors [3]) | affinity for the 5-HT1A sites of the reference (in words) (5-HT1A receptors [4]) | selectivity for the 5-HT1A sites of the reference (in words) (5-HT1A receptors [4]) | pKi (5-HT1A receptors [2])
1 | COc1ccccc1OCCNCC1CCN(c2nc3ccccc3o2)CC1.Cl.Cl [Example 44, 1-(BENZOXAZOL-2-YL)-4-[[2-(2-METHOXYPHENOXY)ETHYL]AMINOMETHYL]PIPERIDINE DIHYDROCHLORIDE] | 0.31 | antagonist properties | 1 | – | – | – | –
2 | CCCN(CCC)C1CCc2cccc(O)c2C1 (stereo not drawn) [Example 8-OH-DPAT, 8-hydroxy-2-(dipropylamino)tetraline] | – | – | – | marked spontaneous movements of the tail | very great affinity | great selectivity | –
3 | COc1cccc2c1OC(CNCC1CCN(c3nc4ccccc4s3)CC1)CO2 (stereo not drawn) [Example 16, 1-(BENZOTHIAZOL-2-YL)-4-[(8-METHOXY-1,4-BENZODIOXAN-2-YL)-METHYLAMINOMETHYL]PIPERIDINE DIHYDROCHLORIDE] | 0.31 | antagonist properties | – | – | – | – | 9.30
